Structures can show the parent of a compound that is named as a salt.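 Growth conditions: 96-well plates. Treatment: test compound, 48 hours, 5 concentrations. Analysis: linear interpolation between bracketing concentrations; unreached endpoints set to highest concentration. GI50 = concentration required for 50% inhibition of growth.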 Activity calls are given as the source filed them. Cut-off read from the data, not from the text of the source: active = GI50 up to about 1.1 µM and inactive = higher.
Columns and labels:
Assay in all cases: growth of human tumour cells (NCI), 48 h
[1] = test system: A549
[2] = test system: CAKI-1
[3] = test system: COLO 205
[4] = test system: DU-145
[5] = test system: HOP-92
[6] = test system: IGROV-1
[7] = test system: KM12
[8] = test system: LOX IMVI
[9] = test system: MDA-MB-231
[10] = test system: Malme-3M
[11] = test system: NCI-H23
[12] = test system: OVCAR-4
[13] = test system: OVCAR-8
[14] = test system: SN12C
[15] = test system: SNB-19
[16] = test system: UO-31
[17] = test system: CCRF-CEM
[18] = test system: Hs-578T
[19] = test system: UACC-62
[20] = test system: SK-MEL-2

SMILES | GI50 [1] | GI50 [2] | GI50 [3] | GI50 [4] | GI50 [5] | GI50 [6] | GI50 [7] | GI50 [8] | GI50 [9] | GI50 [10] | GI50 [11] | GI50 [12] | GI50 [13] | GI50 [14] | GI50 [15] | GI50 [16] | GI50 [17] | GI50 [18] | GI50 [19] | GI50 [20]
CC(=O)[C@@H]1C/C(=C\OCc2ccccc2)O[C@H]1C | > 100 µM (inactive) | > 100 µM (inactive) | > 100 µM (inactive) | > 100 µM (inactive) | > 100 µM (inactive) | > 100 µM (inactive) | > 100 µM (inactive) | 61.2 µM (inactive) | > 100 µM (inactive) | > 100 µM (inactive) | > 100 µM (inactive) | > 100 µM (inactive) | > 100 µM (inactive) | > 100 µM (inactive) | > 100 µM (inactive) | > 100 µM (inactive) |  |  |  | 
Cc1ccc(Nc2cn(COCc3ccccc3)c(=O)[nH]c2=O)cc1 | > 100 µM (inactive) | 65.5 µM (inactive) | > 100 µM (inactive) | > 100 µM (inactive) | > 100 µM (inactive) | 45.6 µM (inactive) | > 100 µM (inactive) | > 100 µM (inactive) |  |  | 25.5 µM (inactive) | > 100 µM (inactive) |  | > 100 µM (inactive) | 75.2 µM (inactive) | > 100 µM (inactive) | > 100 µM (inactive) | 24.9 µM (inactive) | 43.9 µM (inactive) | 
Nn1c(CCCCCCCCc2nnc(COc3ccc(Cl)cc3)n2N)nnc1COc1ccc(Cl)cc1 | > 100 µM (inactive) | 16.9 µM (inactive) | > 100 µM (inactive) | > 100 µM (inactive) | > 100 µM (inactive) | > 100 µM (inactive) | > 100 µM (inactive) |  | > 100 µM (inactive) | > 100 µM (inactive) | > 100 µM (inactive) | > 100 µM (inactive) |  | > 100 µM (inactive) | > 100 µM (inactive) | 25.4 µM (inactive) |  |  | > 100 µM (inactive) | > 100 µM (inactive)
Cc1ccc(S(=O)(=O)N/N=C(\CCN2CCCC2)CC(c2ccccc2)c2c(O)c3ccccc3oc2=O)cc1 (stereo unspecified) | > 100 µM (inactive) | > 100 µM (inactive) |  |  | 72.3 µM (inactive) | > 100 µM (inactive) | > 100 µM (inactive) | > 100 µM (inactive) |  | > 100 µM (inactive) | > 100 µM (inactive) | > 100 µM (inactive) | > 100 µM (inactive) | > 100 µM (inactive) | > 100 µM (inactive) | > 100 µM (inactive) | 95.5 µM (inactive) |  | > 100 µM (inactive) | > 100 µM (inactive)
Cc1cc2nc3c(C#N)c(-c4ccccc4)cc(Nc4cccc(C(F)(F)F)c4)n3c2cc1C | 3.18 µM (inactive) | 4.85 µM (inactive) | 4.17 µM (inactive) |  |  |  | 4.07 µM (inactive) | 9.12 µM (inactive) | 3.43 µM (inactive) | 7.87 µM (inactive) | 5.25 µM (inactive) | 5.28 µM (inactive) | 4.14 µM (inactive) | 3.68 µM (inactive) | 4.86 µM (inactive) | 5.08 µM (inactive) | 3.6 µM (inactive) |  |  | 2.61 µM (inactive)
N#Cc1ccc(C(C2C(=O)NC(=O)NC2=O)C2C(=O)NC(=O)NC2=O)cc1 | > 100 µM (inactive) | > 100 µM (inactive) | > 100 µM (inactive) |  | > 100 µM (inactive) | > 100 µM (inactive) | > 100 µM (inactive) | > 100 µM (inactive) |  | > 100 µM (inactive) | > 100 µM (inactive) | > 100 µM (inactive) | > 100 µM (inactive) | > 100 µM (inactive) | > 100 µM (inactive) | > 100 µM (inactive) | > 100 µM (inactive) |  | > 100 µM (inactive) | > 100 µM (inactive)
NCCc1cc(O)c(O)cc1O [OXIDOPAMINE HYDROCHLORIDE] | 35 µM (inactive) | 18.6 µM (inactive) | 41.9 µM (inactive) | 17.7 µM (inactive) |  | 19.3 µM (inactive) | 17.5 µM (inactive) |  | 19.5 µM (inactive) | > 100 µM (inactive) |  |  | 32.4 µM (inactive) | 25.3 µM (inactive) | 32.5 µM (inactive) | 25.2 µM (inactive) | 3.97 µM (inactive) |  | 31.2 µM (inactive) | 43.5 µM (inactive)
O=C1C2=C(SCCS2)C(=O)c2ccccc21 | 1.9 µM (inactive) | 1.9 µM (inactive) | 1.61 µM (inactive) |  | 1.68 µM (inactive) | 1.77 µM (inactive) | 1.77 µM (inactive) | 0.902 µM (active) |  | 1.81 µM (inactive) | 1.85 µM (inactive) | 1.65 µM (inactive) | 1.67 µM (inactive) | 1.95 µM (inactive) | 1.54 µM (inactive) | 1.93 µM (inactive) | 0.783 µM (active) |  | 1.65 µM (inactive) | 1.99 µM (inactive)
Cc1ccc(-c2c(C#N)c(-c3ccccc3)n(NS(=O)(=O)c3ccc(C)cc3)c(=O)c2C#N)cc1 | 55.8 µM (inactive) | 71.1 µM (inactive) | > 100 µM (inactive) |  | 11.4 µM (inactive) | 36.7 µM (inactive) | 27.4 µM (inactive) | 26.7 µM (inactive) | > 100 µM (inactive) | 38.6 µM (inactive) |  | 43.5 µM (inactive) | 41.9 µM (inactive) | 82.6 µM (inactive) | 50.8 µM (inactive) |  | 23 µM (inactive) |  | 43.8 µM (inactive) | 35.8 µM (inactive)
O=C1CCCC2=C1CC1=C(CCCC1=O)N2c1cccc2ccccc12 | > 100 µM (inactive) | > 100 µM (inactive) |  |  | 33 µM (inactive) | > 100 µM (inactive) | > 100 µM (inactive) | > 100 µM (inactive) |  |  | 52.5 µM (inactive) | > 100 µM (inactive) | 69.2 µM (inactive) | > 100 µM (inactive) | 75 µM (inactive) | > 100 µM (inactive) | 47.3 µM (inactive) | 33.8 µM (inactive) | 64.1 µM (inactive) | 
Cc1nn(-c2ccccc2)c2nc3c(c(C)nn3-c3ccccc3)c(-c3ccccc3Br)c12 | 8.95 µM (inactive) | > 100 µM (inactive) | > 100 µM (inactive) | > 100 µM (inactive) | > 100 µM (inactive) | > 100 µM (inactive) | > 100 µM (inactive) | > 100 µM (inactive) | > 100 µM (inactive) | > 100 µM (inactive) | > 100 µM (inactive) | > 100 µM (inactive) | > 100 µM (inactive) | > 100 µM (inactive) | > 100 µM (inactive) | 59.4 µM (inactive) | > 100 µM (inactive) |  | > 100 µM (inactive) | 
CN1OC(CO)CC12C1CC3CC(C1)CC2C3 (stereo unspecified) | > 100 µM (inactive) | > 100 µM (inactive) | > 100 µM (inactive) |  | > 100 µM (inactive) | > 100 µM (inactive) | > 100 µM (inactive) | > 100 µM (inactive) |  | > 100 µM (inactive) | > 100 µM (inactive) | > 100 µM (inactive) | > 100 µM (inactive) | > 100 µM (inactive) | > 100 µM (inactive) | > 100 µM (inactive) | > 100 µM (inactive) |  | > 100 µM (inactive) | > 100 µM (inactive)
C=CCN1C(=O)C/C(=C2/CCC(=O)N2CC=C)C1=O | > 100 µM (inactive) | > 100 µM (inactive) | > 100 µM (inactive) |  | > 100 µM (inactive) | > 100 µM (inactive) | > 100 µM (inactive) | > 100 µM (inactive) |  | > 100 µM (inactive) | > 100 µM (inactive) | > 100 µM (inactive) | > 100 µM (inactive) | > 100 µM (inactive) | > 100 µM (inactive) | > 100 µM (inactive) | > 100 µM (inactive) |  | > 100 µM (inactive) | > 100 µM (inactive)
CCOC(=O)CCC(NC(=O)c1ccc(NC(OC)c2nc3cc(C(F)(F)F)ccc3nc2-c2ccccc2)cc1)C(=O)OCC (stereo unspecified) | 18.5 µM (inactive) | 17.1 µM (inactive) | 16.5 µM (inactive) |  | 16 µM (inactive) | 15.7 µM (inactive) | 6.24 µM (inactive) | 10.4 µM (inactive) |  | 17 µM (inactive) | 16 µM (inactive) | 21.5 µM (inactive) | 10.3 µM (inactive) | 14.5 µM (inactive) | 14.4 µM (inactive) | 13.6 µM (inactive) | 2.51 µM (inactive) |  | 16.9 µM (inactive) | 17.3 µM (inactive)
O=C(/C=C/c1ccc(-c2ccccc2)cc1)c1ccccc1 | 19.5 µM (inactive) | 38.7 µM (inactive) | 22.3 µM (inactive) |  | 16.6 µM (inactive) | 26.7 µM (inactive) | 17.9 µM (inactive) | 15.7 µM (inactive) |  | 41.9 µM (inactive) | 20.1 µM (inactive) | 29.7 µM (inactive) | 17.3 µM (inactive) | 30.4 µM (inactive) |  | 35 µM (inactive) | 90.4 µM (inactive) |  | 20.8 µM (inactive) | 12.7 µM (inactive)
CCCCCCCCCCCC(=O)OCC1OC(n2cc(F)c(=O)[nH]c2=O)C(NC(=O)OCc2ccccc2)C(O)C1O (stereo unspecified) | 20.8 µM (inactive) | 32.6 µM (inactive) | 21.2 µM (inactive) |  | 22.4 µM (inactive) | > 100 µM (inactive) | 21.3 µM (inactive) | 18.4 µM (inactive) |  | 21 µM (inactive) | 35.3 µM (inactive) | 23.8 µM (inactive) | 21.2 µM (inactive) | 18.5 µM (inactive) | 28.5 µM (inactive) | 30.3 µM (inactive) | 17.6 µM (inactive) |  | 19.3 µM (inactive) | 19.1 µM (inactive)

Reference: ChEMBL document CHEMBL1201862, “PubChem BioAssay data set” (2004)
